Patent publication US20060019952A1, “Anti-viral therapeutics” (ELIXIR PHARMACEUTICALS, INC., priority 2004, published 2006)

Target: T1, GFP-hSIRT2 isoform 1 (Homo sapiens, UniProt Q8IXJ6)
T1 construct: expressed in transfected cells; host or cells: HeLa
T1 sequence (Q8IXJ6 1-389): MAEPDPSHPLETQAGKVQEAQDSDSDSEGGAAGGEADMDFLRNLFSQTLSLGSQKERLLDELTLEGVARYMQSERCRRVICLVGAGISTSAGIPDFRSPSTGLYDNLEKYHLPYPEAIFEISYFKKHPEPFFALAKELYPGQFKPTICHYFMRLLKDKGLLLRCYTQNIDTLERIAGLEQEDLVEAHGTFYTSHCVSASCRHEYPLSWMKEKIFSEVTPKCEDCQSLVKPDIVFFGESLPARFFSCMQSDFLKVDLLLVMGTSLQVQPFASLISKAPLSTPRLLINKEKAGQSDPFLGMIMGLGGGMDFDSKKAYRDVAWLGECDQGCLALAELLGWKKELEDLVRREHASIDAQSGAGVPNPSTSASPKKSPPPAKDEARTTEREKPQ
Assay: Acetylated tubulin staining in HeLa cells transfected with GFP-hSIRT2 isoform 1
Type: cell-based
Conditions: 50 μM compound with 1 μM TSA, added 36 hours post transfection, fixed next morning, versus DMSO
Procedure: HeLa cells were transfected with GFP-hSIRT2 isoform 1. At 36 hours post transfection 1 μM of TSA and either DMSO or 50 μM of Compound 8 was added. The next morning cells were fixed, permeabilized, and stained for acetylated tubulin.

Structure (SMILES): NC(=O)COC(=O)c1sc2ccccc2c1Cl [Compound 8, 3-Chloro-benzo[b]thiophene-2-carboxylic acid carbamoylmethyl ester]
- tubulin acetylation in cells expressing SIRT2 (staining for acetylated tubulin): more highly acetylated
